Measurements: ChEMBL document CHEMBL3822420, “New peptide deformylase inhibitors design, synthesis and pharmacokinetic assessment” (Bioorg Med Chem Lett, 2016)
Values after ≈ are worked out from the molar mass of the structure shown.

Tests used:
Format in all cases: functional
Enterococcus faecalis [1] = assay: Antibacterial activity against Enterococcus faecalis 14-2
Enterococcus faecalis [2] = assay: Antibacterial activity against Enterococcus faecalis 14-3
Staphylococcus aureus [3] = assay: Antibacterial activity against methicillin-sensitive Staphylococcus aureus 14-4
[4] = tested on: Staphylococcus epidermidis; assay: Antibacterial activity against methicillin-sensitive Staphylococcus epidermidis 14-2
Escherichia coli [5] = assay: Antibacterial activity against Escherichia coli 14-1
[6] = tested on: Staphylococcus epidermidis; assay: Antibacterial activity against methicillin-resistant Staphylococcus epidermidis 14-3
Enterococcus faecalis [7] = assay: Antibacterial activity against Enterococcus faecalis 14-5
Staphylococcus aureus [8] = assay: Antibacterial activity against methicillin-resistant Staphylococcus aureus 14-2
[9] = tested on: Staphylococcus epidermidis; assay: Antibacterial activity against methicillin-resistant Staphylococcus epidermidis 14-4
Escherichia coli [10] = assay: Antibacterial activity against Escherichia coli 14-2
[11] = tested on: Staphylococcus epidermidis; assay: Antibacterial activity against methicillin-resistant Staphylococcus epidermidis 14-2
Enterococcus faecalis [12] = assay: Antibacterial activity against Enterococcus faecalis 14-1
Staphylococcus aureus [13] = assay: Antibacterial activity against methicillin-sensitive Staphylococcus aureus 14-3
Staphylococcus aureus [14] = assay: Antibacterial activity against methicillin-resistant Staphylococcus aureus 14-1
[15] = tested on: Staphylococcus epidermidis; assay: Antibacterial activity against methicillin-sensitive Staphylococcus epidermidis 14-1
Staphylococcus aureus [16] = assay: Antibacterial activity against methicillin-resistant Staphylococcus aureus 14-5
[17] = tested on: Staphylococcus epidermidis; assay: Antibacterial activity against methicillin-sensitive Staphylococcus epidermidis 14-3
Escherichia coli [18] = assay: Antibacterial activity against Escherichia coli 14-1 expressing extended-spectrum beta-lactamase
Staphylococcus aureus [19] = assay: Antibacterial activity against methicillin-sensitive Staphylococcus aureus 14-1
[20] = tested on: Staphylococcus epidermidis; assay: Antibacterial activity against methicillin-resistant Staphylococcus epidermidis 14-1
Staphylococcus aureus [21] = assay: Antibacterial activity against methicillin-resistant Staphylococcus aureus 14-4
Staphylococcus aureus [22] = assay: Antibacterial activity against methicillin-sensitive Staphylococcus aureus 14-2
Escherichia coli [23] = assay: Antibacterial activity against Escherichia coli 14-2 expressing extended-spectrum beta-lactamase

CCCC[C@H](CN(O)C=O)C(=O)N1CC2(CC2)C[C@H]1C(=O)Nc1nccc(-c2cccnc2)n1
MIC (Enterococcus faecalis [1]): 0.5 µg/mL (≈ 1.07 µM)
MIC (Enterococcus faecalis [2]): 1 µg/mL (≈ 2.14 µM)
MIC (Staphylococcus aureus [3]): 0.25 µg/mL (≈ 0.536 µM)
MIC [4]: 0.5 µg/mL (≈ 1.07 µM)
MIC (Escherichia coli [5]): > 64 µg/mL
MIC [6]: 0.125 µg/mL (≈ 0.268 µM)
MIC (Enterococcus faecalis [7]): 0.5 µg/mL (≈ 1.07 µM)
MIC (Staphylococcus aureus [8]): 0.5 µg/mL (≈ 1.07 µM)
MIC [9]: 0.5 µg/mL (≈ 1.07 µM)
MIC (Escherichia coli [10]): > 64 µg/mL
MIC [11]: 0.25 µg/mL (≈ 0.536 µM)
MIC (Enterococcus faecalis [12]): 0.5 µg/mL (≈ 1.07 µM)
MIC (Staphylococcus aureus [13]): 0.5 µg/mL (≈ 1.07 µM)
MIC (Staphylococcus aureus [14]): 2 µg/mL (≈ 4.29 µM)
MIC [15]: 0.125 µg/mL (≈ 0.268 µM)
MIC (Staphylococcus aureus [16]): 0.25 µg/mL (≈ 0.536 µM)
MIC [17]: 0.25 µg/mL (≈ 0.536 µM)
MIC (Escherichia coli [18]): 2 µg/mL (≈ 4.29 µM)
MIC (Staphylococcus aureus [19]): 0.25 µg/mL (≈ 0.536 µM)
MIC [20]: 0.25 µg/mL (≈ 0.536 µM)
MIC (Staphylococcus aureus [21]): 2 µg/mL (≈ 4.29 µM)
MIC (Staphylococcus aureus [22]): 0.5 µg/mL (≈ 1.07 µM)
MIC (Escherichia coli [23]): > 64 µg/mL

CCCC[C@H](CN(O)C=O)C(=O)N1CC2(CC2)C[C@H]1C(=O)Nc1ncccc1F
MIC (Enterococcus faecalis [1]): 2 µg/mL (≈ 4.92 µM)
MIC (Enterococcus faecalis [2]): 2 µg/mL (≈ 4.92 µM)
MIC (Staphylococcus aureus [3]): 0.5 µg/mL (≈ 1.23 µM)
MIC [4]: 0.25 µg/mL (≈ 0.615 µM)
MIC (Escherichia coli [5]): > 64 µg/mL
MIC [6]: 0.125 µg/mL (≈ 0.308 µM)
MIC (Enterococcus faecalis [7]): 2 µg/mL (≈ 4.92 µM)
MIC (Staphylococcus aureus [8]): 0.5 µg/mL (≈ 1.23 µM)
MIC [9]: 0.5 µg/mL (≈ 1.23 µM)
MIC (Escherichia coli [10]): 64 µg/mL (≈ 157 µM)
MIC [11]: 0.25 µg/mL (≈ 0.615 µM)
MIC (Enterococcus faecalis [12]): 2 µg/mL (≈ 4.92 µM)
MIC (Staphylococcus aureus [13]): 0.5 µg/mL (≈ 1.23 µM)
MIC (Staphylococcus aureus [14]): 0.5 µg/mL (≈ 1.23 µM)
MIC [15]: 0.125 µg/mL (≈ 0.308 µM)
MIC (Staphylococcus aureus [16]): 0.25 µg/mL (≈ 0.615 µM)
MIC [17]: 0.25 µg/mL (≈ 0.615 µM)
MIC (Escherichia coli [18]): 2 µg/mL (≈ 4.92 µM)
MIC (Staphylococcus aureus [19]): 0.5 µg/mL (≈ 1.23 µM)
MIC [20]: 0.25 µg/mL (≈ 0.615 µM)
MIC (Staphylococcus aureus [21]): 0.5 µg/mL (≈ 1.23 µM)
MIC (Staphylococcus aureus [22]): 0.5 µg/mL (≈ 1.23 µM)
MIC (Escherichia coli [23]): 64 µg/mL (≈ 157 µM)

CO/N=C(\C(=O)N[C@@H]1C(=O)N2C(C(=O)[O-])=CCS[C@H]12)c1csc(N)n1.[Na+] [CEFTIZOXIME SODIUM]
MIC (Enterococcus faecalis [1]): > 128 µg/mL
MIC (Enterococcus faecalis [2]): > 128 µg/mL
MIC (Staphylococcus aureus [3]): 2 µg/mL
MIC [4]: 64 µg/mL
MIC (Escherichia coli [5]): 4 µg/mL
MIC (Enterococcus faecalis [7]): > 128 µg/mL
MIC (Staphylococcus aureus [8]): 64 µg/mL
MIC [9]: 32 µg/mL
MIC (Escherichia coli [10]): 4 µg/mL
MIC [11]: 128 µg/mL
MIC (Enterococcus faecalis [12]): > 128 µg/mL
MIC (Staphylococcus aureus [13]): 4 µg/mL
MIC (Staphylococcus aureus [14]): 128 µg/mL
MIC [15]: 32 µg/mL
MIC (Staphylococcus aureus [16]): 64 µg/mL
MIC [17]: > 128 µg/mL
MIC (Escherichia coli [18]): 1 µg/mL
MIC (Staphylococcus aureus [19]): 4 µg/mL
MIC [20]: 128 µg/mL
MIC (Staphylococcus aureus [21]): 128 µg/mL
MIC (Staphylococcus aureus [22]): 4 µg/mL
MIC (Escherichia coli [23]): 32 µg/mL

Cc1nc(NNC(=O)[C@H](CC2CCCC2)CN(O)C=O)c(F)c(N2CCN3CCOC[C@@H]3C2)n1 [LANOPEPDEN]
MIC (Enterococcus faecalis [1]): 16 µg/mL (≈ 33.4 µM)
MIC (Enterococcus faecalis [2]): 16 µg/mL (≈ 33.4 µM)
MIC (Staphylococcus aureus [3]): 1 µg/mL (≈ 2.09 µM)
MIC [4]: 0.25 µg/mL (≈ 0.521 µM)
MIC (Escherichia coli [5]): 64 µg/mL (≈ 133 µM)
MIC [6]: 0.015 µg/mL (≈ 0.0313 µM)
MIC (Enterococcus faecalis [7]): > 64 µg/mL
MIC (Staphylococcus aureus [8]): 1 µg/mL (≈ 2.09 µM)
MIC [9]: 0.25 µg/mL (≈ 0.521 µM)
MIC (Escherichia coli [10]): 64 µg/mL (≈ 133 µM)
MIC [11]: 0.06 µg/mL (≈ 0.125 µM)
MIC (Enterococcus faecalis [12]): 8 µg/mL (≈ 16.7 µM)
MIC (Staphylococcus aureus [13]): 1 µg/mL (≈ 2.09 µM)
MIC (Staphylococcus aureus [14]): 2 µg/mL (≈ 4.17 µM)
MIC [15]: 0.125 µg/mL (≈ 0.261 µM)
MIC (Staphylococcus aureus [16]): 0.25 µg/mL (≈ 0.521 µM)
MIC [17]: 0.06 µg/mL (≈ 0.125 µM)
MIC (Escherichia coli [18]): 1 µg/mL (≈ 2.09 µM)
MIC (Staphylococcus aureus [19]): 1 µg/mL (≈ 2.09 µM)
MIC [20]: 0.125 µg/mL (≈ 0.261 µM)
MIC (Staphylococcus aureus [21]): 2 µg/mL (≈ 4.17 µM)
MIC (Staphylococcus aureus [22]): 1 µg/mL (≈ 2.09 µM)
MIC (Escherichia coli [23]): > 64 µg/mL

C[C@H]1COc2c(N3CCN(C)CC3)c(F)cc3c(=O)c(C(=O)O)cn1c23.C[C@H]1COc2c(N3CCN(C)CC3)c(F)cc3c(=O)c(C(=O)O)cn1c23.O [LEVOFLOXACIN]
MIC (Enterococcus faecalis [1]): 4 µg/mL
MIC (Enterococcus faecalis [2]): 2 µg/mL
MIC (Staphylococcus aureus [3]): 16 µg/mL
MIC [4]: 0.5 µg/mL
MIC [6]: 16 µg/mL
MIC (Enterococcus faecalis [7]): 2 µg/mL
MIC (Staphylococcus aureus [8]): > 128 µg/mL
MIC [9]: 16 µg/mL
MIC [11]: 16 µg/mL
MIC (Enterococcus faecalis [12]): 2 µg/mL
MIC (Staphylococcus aureus [13]): 32 µg/mL
MIC (Staphylococcus aureus [14]): 128 µg/mL
MIC [15]: 0.5 µg/mL
MIC (Staphylococcus aureus [16]): > 128 µg/mL
MIC [17]: 0.5 µg/mL
MIC (Escherichia coli [18]): 32 µg/mL
MIC (Staphylococcus aureus [19]): 16 µg/mL
MIC [20]: 16 µg/mL
MIC (Staphylococcus aureus [21]): > 128 µg/mL
MIC (Staphylococcus aureus [22]): 0.5 µg/mL
MIC (Escherichia coli [23]): 64 µg/mL

CO[C@H]1/C=C/O[C@@]2(C)Oc3c(C)c(O)c4c(O)c(c(/C=N/N5CCN(C)CC5)c(O)c4c3C2=O)NC(=O)/C(C)=C\C=C\[C@H](C)[C@H](O)[C@@H](C)[C@@H](O)[C@@H](C)[C@H](OC(C)=O)[C@@H]1C [RIFAMPIN]
MIC (Enterococcus faecalis [1]): 2 µg/mL (≈ 2.43 µM)
MIC (Enterococcus faecalis [2]): 2 µg/mL (≈ 2.43 µM)
MIC (Staphylococcus aureus [3]): < 0.008 µg/mL
MIC [4]: < 0.008 µg/mL
MIC (Escherichia coli [5]): 2 µg/mL (≈ 2.43 µM)
MIC [6]: 0.008 µg/mL (≈ 0.00972 µM)
MIC (Enterococcus faecalis [7]): 4 µg/mL (≈ 4.86 µM)
MIC (Staphylococcus aureus [8]): > 128 µg/mL
MIC [9]: < 0.008 µg/mL
MIC (Escherichia coli [10]): 2 µg/mL (≈ 2.43 µM)
MIC (Enterococcus faecalis [12]): 1 µg/mL (≈ 1.22 µM)
MIC (Staphylococcus aureus [13]): 0.008 µg/mL (≈ 0.00972 µM)
MIC (Staphylococcus aureus [14]): > 128 µg/mL
MIC [15]: < 0.008 µg/mL
MIC (Staphylococcus aureus [16]): > 128 µg/mL
MIC [17]: 0.008 µg/mL (≈ 0.00972 µM)
MIC (Escherichia coli [18]): 2 µg/mL (≈ 2.43 µM)
MIC (Staphylococcus aureus [19]): < 0.008 µg/mL
MIC (Staphylococcus aureus [21]): > 128 µg/mL
MIC (Staphylococcus aureus [22]): 0.008 µg/mL (≈ 0.00972 µM)
MIC (Escherichia coli [23]): 2 µg/mL (≈ 2.43 µM)
